Test in all cases: Whole-cell patch clamp, Kv1.3 alanine mutant
Holding throughout (format): cell-based
For orientation: The patch-clamp technique gives a direct electrical read-out from membranes.

One assay deals with T1, Kv1.3/E346A (Homo sapiens, UniProt P22001, E346A).
T1 construct: expressed in transfected cells; host or cells: CHO-K1
As to the method:
(§1) MrVIII inhibits Kv1 channels by stabilizing the voltage sensor in its resting state. […] To investigate this hypothesis, we constructed a series of alanine mutants in the S3-S4 region of the Kv1.3 channel, covering residues I336 to L363, to identify critical interactions between the peptide and the channel (Fig. 6A). […] For the remaining mutants that retained functional current expression, we evaluated the inhibitory activity of 100 nM MrVIII. […] The lack of conserved multiple interaction sites may explain the absence of activity on other Kv subfamily channels (Fig. S3). In summary, this study identified key amino acid residues in the S3-S4 region of the Kv1.3 channel that interact with MrVIII, providing a foundation for further exploration into the peptide's mechanism of action.
(§2) The cDNA of hKv1.1, hKv1.2, hKv1.3, rKv1.4, hKv1.5, mKv1.6, and hKv1.7 were subcloned into mammalian expression vectors pcDNA3.1 or pCMV-blank vectors, as well as other plasmids described previously ([35]). Channel mutants were generated by site-directed mutations. Briefly, the parental channel plasmid was amplified using a pair of oppositely directed primers harboring the designed mutation site, with KOD Fx (TOYOBO Co, Ltd). The resulting PCR mix was treated with FastDigest DpnI (Thermo Fisher Scientific) to remove the methylated template. Ten microliters of the digested product was then used to transform 100 μl E. coli DH5α competent cells. Transformants were randomly picked and sequenced to confirm the presence of the intended mutation.
(§3) CHO-K1 cells were selected for expressing Kv channels due to their lack of endogenous Kv channels, while HEK293 or ND7/23 cells were used for Nav and Cav channel expression. CHO-K1 cells were cultured in a Dulbecco's modified Eagle's medium/Ham's F-12 nutrient mixture (DMEM-F12) medium, and HEK293T and ND7/23 cells in DMEM medium, all supplemented with 10% fetal bovine serum and 1% penicillin-streptomycin (all from Gibco, Thermo Fisher Scientific, Inc) under standard conditions (37 °C, 5% CO2, and saturated humidity). These cell lines were purchased from Stem Cell Bank, Chinese Academy of Sciences. Channel plasmids were cotransfected with pEGFP-N1 (encoding GFP) into the respective cells using lipofectamine 2000, following the manufacturer's instructions (Invitrogen, Thermo Fisher Scientific, Inc.). Nav1.9-GFP plasmid was transfected into ND7/23 using the X-tremeGENE HP DNA Transfection Reagent (Roche). After 4 to 6 h transfection, cells were seeded onto poly-lysine–coated coverslips, and 24 to 36 h later, transfected cells were ready for patch-clamp analysis.
(§4) Patch clamp experiments were conducted using an electrophysiology platform comprising a MultiClamp 700B amplifier and an Axon Digidata 1550 AD/DA convertor (Axon Instruments). Data acquisition was performed with pClamp 10.5 software (Axon Instruments). All experiments were performed at room temperature.
(§5) For Kv current recordings, the bath solution contained (in mM) the following: 140 NaCl, 5 KCl, 1 MgCl2, 2 CaCl2, 10 glucose, and 10 Hepes (pH 7.3, adjusted with NaOH), and the pipette solution contained (in mM) the following: 140 KCl, 2.5 MgCl2, 11 EGTA, and 10 Hepes (pH 7.3, adjusted with KOH). Series resistance was maintained below 10 MΩ and compensated to 80%. Concentration–response curves were fitted by the Hill equation to determine the toxin's potency. Whole cell conductance (G) at each depolarizing voltage (V) was determined using the equation: G = I/(V−Vrev), where I is the current amplitude, and Vrev is the reversal potential. The reversal potential for K^+ current was estimated to be −85.6 mV using the Nernst equation. G-V curves were obtained by plotting the normalized conductance as a function of V and fitted by the Boltzmann equation: y = 1/(1+ exp((Va-V)/k)), which Va is the midpoint voltage, V is the test potential, and k is the slope factor. The steady-state fast inactivation of Kv1.3 was measured using a two-pulses protocol. […]

The next assay deals with T2, Kv1.3/T342A (Homo sapiens, UniProt P22001, T342A).
T2 construct: expressed in transfected cells; host or cells: CHO-K1
T2 sequence (P22001 whole entry T342A): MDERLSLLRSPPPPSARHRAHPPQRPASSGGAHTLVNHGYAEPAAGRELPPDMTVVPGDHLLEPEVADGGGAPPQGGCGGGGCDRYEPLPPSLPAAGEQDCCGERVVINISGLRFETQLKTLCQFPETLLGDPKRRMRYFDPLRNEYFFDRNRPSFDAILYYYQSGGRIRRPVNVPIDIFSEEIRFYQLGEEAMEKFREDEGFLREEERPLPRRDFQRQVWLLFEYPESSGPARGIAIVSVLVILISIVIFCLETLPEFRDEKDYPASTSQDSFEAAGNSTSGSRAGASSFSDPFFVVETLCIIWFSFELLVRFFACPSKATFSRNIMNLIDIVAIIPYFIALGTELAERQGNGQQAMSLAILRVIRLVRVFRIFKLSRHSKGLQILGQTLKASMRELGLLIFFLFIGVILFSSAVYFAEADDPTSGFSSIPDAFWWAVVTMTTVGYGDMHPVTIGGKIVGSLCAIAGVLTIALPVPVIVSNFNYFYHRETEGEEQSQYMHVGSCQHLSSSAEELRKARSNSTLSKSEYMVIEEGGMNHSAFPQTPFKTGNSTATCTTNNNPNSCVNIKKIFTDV
As to the method: as §1, §2, §3, §4, §5

The next assay addresses T3, Kv1.3/L360A (Homo sapiens, UniProt P22001, L360A).
T3 construct: expressed in transfected cells; host or cells: CHO-K1
As to the method: as §1, §2, §3, §4, §5

A further assay deals with T4, Kv1.3/L343A (Homo sapiens, UniProt P22001, L343A).
T4 construct: expressed in transfected cells; host or cells: CHO-K1
T4 sequence (P22001 whole entry L343A): as the sequence (P22001 whole entry T342A) above, with A342T, L343A counted along it
As to the method:
as §1, §2, §3, §4, §5

The next assay deals with T5, Kv1.3/L347A (Homo sapiens, UniProt P22001, L347A).
T5 construct: expressed in transfected cells; host or cells: CHO-K1
T5 sequence (P22001 whole entry L347A): as the sequence (P22001 whole entry T342A) above, with A342T, L347A counted along it
As to the method: as §1, §2, §3, §4, §5

The target in a further assay is T6, Kv1.3/I341A (Homo sapiens, UniProt P22001, I341A).
T6 construct: expressed in transfected cells; host or cells: CHO-K1
T6 sequence (P22001 whole entry I341A): as the sequence (P22001 whole entry T342A) above, with I341A, A342T counted along it
As to the method: as §1, §2, §3, §4, §5

Where [1] appears, read: 100 nM MrVIII on mutant compared with 10 nM on WT Kv1.3, +30 mV, n = 4–7.

Bridge positions count the residues as written; N and C are the ends. Peptide text beside a SMILES is read from it.

T3 sequence (P22001 whole entry L360A): as the sequence (P22001 whole entry T342A) above, with A342T, L360A counted along it
T1 sequence (P22001 whole entry E346A): as the sequence (P22001 whole entry T342A) above, with A342T, E346A counted along it

`CC[C@H](C)[C@@H]1NC(=O)[C@H](Cc2ccc(O)cc2)NC(=O)[C@H](CCC(N)=O)NC(=O)[C@@H]2CCCN2C(=O)[C@@H]2CSSC[C@H](NC(=O)[C@H](C)NC(=O)[C@H](CO)NC(=O)[C@H](CCC(=O)O)NC(=O)[C@H](CCC(=O)O)NC(=O)[C@@H](N)[C@@H](C)O)C(=O)NCC(=O)NCC(=O)N[C@@H](Cc3ccccc3)C(=O)N[C@@H](CC(N)=O)C(=O)N[C@@H](C)C(=O)N[C@@H](CCCNC(=N)N)C(=O)N[C@H]3CSSC[C@H](NC1=O)C(=O)N[C@@H](CCCCN)C(=O)NCC(=O)N[C@@H](Cc1c[nH]c4ccccc14)C(=O)N[C@@H](CCCNC(=N)N)C(=O)N[C@@H]([C@@H](C)O)C(=O)N[C@@H](CCCCN)C(=O)N[C@@H](CCCNC(=N)N)C(=O)N[C@H](C(=O)N[C@@H](CC(C)C)C(=O)N[C@@H](CC(N)=O)C(=O)N1CCC[C@H]1C(=O)O)CSSC[C@H](NC(=O)[C@H](CCCCN)NC(=O)[C@H](Cc1c[nH]cn1)NC(=O)[C@H](CC(C)C)NC(=O)[C@@H]1CCCN1C3=O)C(=O)N2` [MrVIII] (H-TEESACGGFNARCPLHKCCPQYICKGWRTKRCLNP-OH; disulfide 6-19, 13-24, 18-32; N-terminus and C-terminus assumed): the “decrease of inhibitory potency vs WT Kv1.3, E346A” value on Kv1.3/E346A (setting [1]) is on record as “more than 10 fold”. The IC50 at Kv1.3/E346A (+30 mV, 500 ms, mean ± SD, n = 4–6, SD, read-out: IC50, Kv1.3/E346A current) came out at 51.1 ± 21.1 nM; on Kv1.3/T342A (current at 50 ms, +30 mV, mean ± SD, n = 4–6, SD), 143 ± 38.2 nM; on Kv1.3/L360A (+30 mV, 500 ms, mean ± SD, n = 4–6, SD, read-out: IC50, Kv1.3/L360A current), 148 ± 60.4 nM; on Kv1.3/L343A (+30 mV, 500 ms, mean ± SD, n = 4–6, SD, read-out: IC50, Kv1.3/L343A current), 135 ± 34 nM; on Kv1.3/L347A (+30 mV, 500 ms, mean ± SD, n = 4–6, SD, read-out: IC50, Kv1.3/L347A current), 85.7 ± 41.3 nM; at Kv1.3/I341A (+30 mV, 500 ms, mean ± SD, n = 4–6, SD, read-out: IC50, Kv1.3/I341A current) it was 41 ± 26.3 nM. The “decrease of inhibitory potency vs WT Kv1.3, T342A” value on Kv1.3/T342A (setting [1]) is on record as “more than 10 fold”. Further, the “inhi%(495 ms), Kv1.3/T342A current” value on Kv1.3/T342A (current at 495 ms, +30 mV, mean ± SD, n = 4–6, SD) is 27.7 ± 12.9%. Moreover, at Kv1.3/L360A (setting [1]), the “decrease of inhibitory potency vs WT Kv1.3, L360A” value is “more than 10 fold”. Besides, on Kv1.3/L343A (setting [1]), the “decrease of inhibitory potency vs WT Kv1.3, L343A” value was “more than 10 fold”. Further, the “decrease of inhibitory potency vs WT Kv1.3, L347A” value on Kv1.3/L347A (setting [1]) is given as “more than 10 fold”. Moreover, at Kv1.3/I341A (setting [1]), the “decrease of inhibitory potency vs WT Kv1.3, I341A” value was “more than 10 fold”.

For the origin of these results see article PMC11984586, “A novel spider toxin as a selective antagonist of the Kv1 subfamily of voltage-gated potassium channels through gating modulation” (The Journal of Biological Chemistry, 2025).
